Experiment [1] deals with T1, steroid sulphatase (Homo sapiens, UniProt P08842).
T1 sequence (P08842 22-583): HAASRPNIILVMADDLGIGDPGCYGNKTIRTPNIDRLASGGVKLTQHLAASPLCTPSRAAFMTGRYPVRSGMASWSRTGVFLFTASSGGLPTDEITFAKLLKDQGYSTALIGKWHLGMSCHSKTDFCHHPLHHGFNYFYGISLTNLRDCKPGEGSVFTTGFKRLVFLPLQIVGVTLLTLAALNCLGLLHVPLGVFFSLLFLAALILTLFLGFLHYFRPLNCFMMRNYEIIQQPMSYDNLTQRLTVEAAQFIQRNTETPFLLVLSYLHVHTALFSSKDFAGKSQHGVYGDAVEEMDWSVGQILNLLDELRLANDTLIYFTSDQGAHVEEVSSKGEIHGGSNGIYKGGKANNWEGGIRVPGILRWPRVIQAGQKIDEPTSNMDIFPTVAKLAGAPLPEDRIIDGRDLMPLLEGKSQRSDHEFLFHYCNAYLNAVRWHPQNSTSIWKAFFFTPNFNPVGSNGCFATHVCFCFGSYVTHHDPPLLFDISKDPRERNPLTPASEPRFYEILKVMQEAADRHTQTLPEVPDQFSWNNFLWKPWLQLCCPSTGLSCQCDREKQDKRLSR
Particulars: compared with EMATE; cited from earlier work.

For experiment [2], the system named is rats. Particulars: cited from earlier work.
In experiment [3] the target is T2, Aromatase (Homo sapiens, UniProt P11511).
T2 construct: host or cells: JEG3 choriocarcinoma cells, intact monolayers
T2 sequence (P11511 1-503): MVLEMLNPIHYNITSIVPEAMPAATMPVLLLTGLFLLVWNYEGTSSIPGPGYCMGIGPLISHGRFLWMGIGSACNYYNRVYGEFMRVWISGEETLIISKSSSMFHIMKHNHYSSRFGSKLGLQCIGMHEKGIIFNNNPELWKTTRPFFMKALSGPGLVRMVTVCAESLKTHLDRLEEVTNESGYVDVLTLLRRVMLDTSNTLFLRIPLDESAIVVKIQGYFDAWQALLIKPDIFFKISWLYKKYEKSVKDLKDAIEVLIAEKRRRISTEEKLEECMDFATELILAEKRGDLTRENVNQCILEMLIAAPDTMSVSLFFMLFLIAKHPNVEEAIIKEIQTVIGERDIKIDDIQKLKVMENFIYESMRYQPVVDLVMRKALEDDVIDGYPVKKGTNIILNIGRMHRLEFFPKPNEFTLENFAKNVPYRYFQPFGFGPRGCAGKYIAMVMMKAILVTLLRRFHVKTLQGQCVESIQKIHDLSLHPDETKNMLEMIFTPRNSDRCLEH
Put plainly: Aromatase activity in JEG3 cells (Protocol 6). The format is cell-based. Particulars: intact JEG3 cells, [1β-3H]androstenedione, 30 min. The protocol: Assay for Determining Aromatase Activity Using JEG3 Cells
Aromatase activity is measured in JEG3 choriocarcinoma cells, obtained from the ATCC. […] During the aromatase reaction, ^3H2O is liberated which can be quantified using a liquid scintillation spectrometer. […] The number of cell nuclei per flask is determined using a Coulter Counter after treating the cell monolayers with Zaponin.
Aromatase inhibition was measured in accordance with Protocol 6.

For experiment [4], the target named is T3, Steroid sulphatase (STS) (Homo sapiens, UniProt P08842).
T3 construct: host or cells: JEG3 choriocarcinoma cells, intact monolayers
T3 sequence (P08842 22-583): T1 sequence (P08842 22-583)
Put plainly: Inhibition of steroid sulphatase activity in JEG3 cells (Protocol 1). Particulars: intact JEG3 cells, [6,7-3H]oestrone-3-sulphate, 3-4 hours. Type of experiment: cell-based. On the procedure:
Assay for Determining STS Activity Using Cancer Cells
Inhibition of Steroid Sulphatase Activity in JEG3 Cells
Steroid sulphatase activity is measured in vitro using intact JEG3 choriocarcinoma cells.
Cells are maintained in Minimal Essential Medium (MEM) containing 20 mM HEPES, 5% foetal bovine serum, 2 mM glutamine, non-essential amino acids and 0.075% sodium bicarbonate. Up to 30 replicate 25 cm^2 tissue culture flasks are seeded with approximately 1×10^5 cells/flask using the above medium Cells are grown to 80% confluency and the medium is changed every third day.
Intact monolayers of JEG3 cells in triplicate 25 cm^2 tissue culture flasks are washed with Earle's Balanced Salt Solution (EBSS) and incubated for 3-4 hours at 37° C. with 5 pmol (7×10^5 dpm) [6, 7-3H]oestrone-3-sulphate (specific activity 60 Ci/mmol) in serum-free MEM (2.5 ml) together with oestrone-3-sulphamate (11 concentrations: 0; 1fM; 0.01 pM; 0.1 pM, 1 pM; 0.01 nM; 0.1 nM; 0.01 mM; 0.1 mM; 1 mM). After incubation each flask is cooled and the medium (1 ml) is pipetted into separate tubes containing [14C]oestrone (7×10^3 dpm) (specific activity 97 Ci/mmol). The mixture is shaken thoroughly for 30 seconds with toluene (5 ml) Experiments have shown that >90% [14C]oestrone and <0 1% [3H]oestrone-3-sulphate is removed from the aqueous phase by this treatment A portion (2 ml) of the organic phase is removed, evaporated and the 3H and 14C content of the residue determined by scintillation spectrometry The mass of oestrone-3-sulphate hydrolysed was calculated from the 3H counts obtained (corrected for the volumes of the medium and organic phase used, and for recovery of [14C] oestrone added) and the specific activity of the substrate Each batch of experiments includes incubations of microsomes prepared from a sulphatase-positive human placenta (positive control) and flasks without cells (to assess apparent non-enzymatic hydrolysis of the substrate). The number of cell nuclei per flask is determined using a Coulter Counter after treating the cell monolayers with Zaponin One flask in each batch is used to assess cell membrane status and viability using the Trypan Blue exclusion method (Phillips, H J. (1973) In: Tissue culture and applications, [eds: Kruse, D. F. & Patterson, M. K]; pp 406-408; Academic Press, New York)
Results for steroid sulphatase activity are expressed as the mean±1S.D. of the total product (oestrone+oestradiol) formed during the incubation period (3-4 hours) calculated for […] and, for values showing statistical significance, as a percentage reduction (inhibition) over incubations containing no oestrone-3-sulphamate. Unpaired Student's t-test was used to test the statistical significance of results
Sterioid sulphatase inhibition was measured in accordance with Protocol 1

Experiment [5] deals with T4, E1-STS (Homo sapiens, UniProt P08842).
T4 construct: host or cells: intact MCF-7 cells (endogenous enzyme)
T4 sequence (P08842 22-583): T1 sequence (P08842 22-583)
Particulars: intact MCF-7 cells, at 0.1 nM; cited from earlier work.

Bounds are passed on as bounds.

As for `COc1cc2c(cc1OS(N)(=O)=O)CC[C@@H]1[C@@H]2CC[C@]2(C)C(=O)CC[C@@H]12` [2-methoxyoestrone-3-O-sulphamate], in experiment [1], the “potency as steroid sulphatase inhibitor” value is “equipotent with EMATE”. Further, the oestrogenicity entry in experiment [2] (rat, in vivo) is given as “devoid of oestrogenicity”.
`N#Cc1ccc(N(Cc2ccc(OS(N)(=O)=O)c(Br)c2)n2cnnc2)cc1-c1ccsc1` [Compound 9]: the values for the IC50 in experiment [3] and in experiment [4] were 2.6 ± 0.2 nM and 3.9 ± 0.8 nM, respectively.
For `N#Cc1ccc(N(Cc2ccc(OS(N)(=O)=O)cc2)n2cnnc2)cc1N1CCCCCC1=O` [Compound 11], the values for the IC50 in experiment [3] and in experiment [4] were 850 ± 104 nM and 1300 ± 265 nM, respectively.
For `N#Cc1ccc(N(Cc2ccc(OS(N)(=O)=O)cc2)n2cnnc2)cc1Cc1ccccc1` [Compound 13] the same measures were less than 0.1 nM and 41 ± 3 nM.
Regarding `N#Cc1ccc(N(Cc2ccc(OS(N)(=O)=O)cc2)n2cnnc2)cc1N1CCCC1` [Compound 15], the IC50 in experiment [3] was less than 0.1 nM; in experiment [4] it was 60 ± 7 nM.
The like results for `N#Cc1ccc(N(Cc2ccc(OS(N)(=O)=O)cc2)n2cnnc2)cc1N1CCCCC1` [Compound 17] were, in that order, 3.4 ± 0.2 nM and 43 ± 6 nM.
The like results for `N#Cc1ccc(N(Cc2ccc(OS(N)(=O)=O)cc2)n2cnnc2)cc1N1CCCCCC1` [Compound 19] were, in that order, 3.2 ± 0.1 nM and 181 ± 8 nM.
Regarding `CN1CCN(c2cc(N(Cc3ccc(OS(N)(=O)=O)cc3)n3cnnc3)ccc2C#N)CC1` [Compound 23], the IC50 turned out to be 89 ± 10.2 nM in experiment [3] and 2800 ± 985 nM in experiment [4].
The like results for `N#Cc1ccc(N(CCC(=O)c2ccc(OS(N)(=O)=O)cc2)n2cnnc2)cc1-c1ccccc1` [Compound 29] were, in that order, less than 0.1 nM and 1150 ± 50 nM.
Turning to `N#Cc1ccc(N(Cc2ccc(OS(N)(=O)=O)cc2F)n2cnnc2)cc1-c1ccccc1` [Compound 31], the IC50 in experiment [3] is 1.43 ± 0.55 nM; in experiment [4], 0.15 ± 0.03 nM.
The like results for `N#Cc1ccc(N(Cc2ccc(OS(N)(=O)=O)cc2)n2ccnc2)cc1-c1ccccc1` [Compound 32] were, in that order, less than 0.1 nM and 9.7 ± 4.2 nM.
For `N#Cc1ccc(N(Cc2ccc(OS(N)(=O)=O)c(F)c2F)n2cnnc2)cc1-c1ccccc1` [Compound 34] the same measures were 0.8 ± 0.3 nM and 2.8 ± 0.9 nM.
The like results for `COc1ccc(-c2cc(N(Cc3c(F)cc(OS(N)(=O)=O)cc3F)n3cnnc3)ccc2C#N)cc1` [Compound 36] were, in that order, less than 0.1 nM and 0.1 nM.
As to `N#Cc1ccc(N(Cc2ccc(OS(N)(=O)=O)cc2)n2cnnc2)cc1CN1CCCC1` [Compound 41], the IC50 in experiment [3] turned out to be 97 ± 2.7 nM; in experiment [4], 4360 ± 554 nM.
With `COc1ccc(Cc2cc(N(Cc3ccc(OS(N)(=O)=O)cc3)n3cnnc3)ccc2C#N)cc1` [Compound 45], the IC50 in experiment [3] came out at 40.7 ± 4.5 nM; in experiment [4], 292 ± 80 nM.
For `N#Cc1ccc(N(Cc2c(F)cc(OS(N)(=O)=O)cc2F)n2cnnc2)cc1-c1ccc(F)cc1` [Compound 47] the same measures were 5.6 ± 0.1 nM and 14 ± 0.87 nM.
For `N#Cc1ccc(N(Cc2ccc(OS(N)(=O)=O)cc2)n2cnnc2)cc1-c1ccncc1` [Compound 51] the same measures were 36 ± 1.7 nM and 198 ± 37 nM.
Consider `N#Cc1ccc(N(Cc2ccc(OS(N)(=O)=O)cc2)n2cnnc2)cc1Oc1ccccc1` [Compound 57], for which the IC50 in experiment [3] came to 12.5 ± 2.3 nM; in experiment [4] it was 62 ± 13 nM.
As to `CC12CCC3c4ccc(OS(N)(=O)=O)cc4CCC3C1CCC2=O` (stereo not shown) [EMATE, oestrone-3-sulphamate], the “oral uterotrophic activity relative to estradiol” value in experiment [2] (rats, oral) is 100 times. Also, in experiment [5], the “inhibition of E1-STS activity” value is “more than 99%”.
For `N#Cc1ccc(N(Cc2c(F)cc(OS(N)(=O)=O)cc2F)n2cnnc2)cc1-c1ccccc1` [PMW04153, 4-(((6-Cyanobiphenyl-3-yl)(4H-1,2,4-triazol-4-yl)amino)methyl)-3,5-difluorophenyl sulfamate], the IC50 is less than 0.1 nM in experiment [3] and 0.12 ± 0.02 nM in experiment [4].

Source of the values: US8846737B2, “Compound” (Sterix Limited, priority 2009, dated 2014).
